In brackets after ≈: the same amount, converted by molar mass.
Key:
Escherichia coli [1] = assay: Supercoiling inhibition assay using purified DNA gyrase isolated from Escherichia coli H560; type: functional; details: read-out: I50
Mus musculus [2] = assay: In vivo efficacy against Escherichia coli Juhl, in mouse protection test when the administered perorally (po); type: functional
Mus musculus [3] = assay: In vivo efficacy against Escherichia coli Juhl, in mouse protection test when administered subcutaneously (sc); type: functional
Pseudomonas aeruginosa [4] = assay: In vitro Minimum inhibitory concentration against Pseudomonas aeruginosa K799/WT; type: functional
Mus musculus [5] = assay: In vivo efficacy against Staphylococcus aureus 10649, in mouse protection test when administered subcutaneously (sc); type: functional
[6] = test system: Staphylococcus epidermidis; assay: In vitro Minimum inhibitory concentration against Staphylococcus epidermidis 3519; type: functional
Mus musculus [7] = assay: Blood level was evaluated at 6.0 hr when administered at a peroral dose of 25 mg/kg; type: functional; details: route oral
Mus musculus [8] = assay: In vivo efficacy against Staphylococcus aureus 10649, in mouse protection test when administered perorally (po); type: functional
Mus musculus [9] = assay: Blood level was evaluated at 3.0 hh when administered at a peroral dose of 25 mg/kg; type: functional; details: route oral
Staphylococcus aureus [10] = assay: In vitro Minimum inhibitory concentration against Staphylococcus aureus A5177; type: functional
Staphylococcus aureus [11] = assay: In vitro Minimum inhibitory concentration against Staphylococcus aureus 45; type: functional
Staphylococcus aureus [12] = assay: In vitro Minimum inhibitory concentration against Staphylococcus aureus ATCC 6538P; type: functional
Streptococcus agalactiae = assay: In vitro Minimum inhibitory concentration against Streptococcus agalactiae CMX 508; type: functional
[13] = Compound was evaluated for the solubility in Ringer's buffer solution; type: ADME; details: Ringer's buffer solution; read-out: Solubility
Streptococcus equinus = assay: In vitro Minimum inhibitory concentration against Streptococcus bovis A5169; type: functional
Staphylococcus aureus [14] = assay: In vitro Minimum inhibitory concentration against Staphylococcus aureus CMX 686B; type: functional
[15] = Partition coefficient (logP); type: physicochemical; details: octanol/water
Mus musculus [16] = assay: Blood level was evaluated at 24.0 hr when administered at a peroral dose of 25 mg/kg; type: functional; details: route oral
Mus musculus [17] = assay: Blood level was evaluated at 1.0 hr when administered at a peroral dose of 25 mg/kg; type: functional; details: route oral
Enterococcus faecium = assay: In vitro Minimum inhibitory concentration against Streptococcus faecium ATCC 8043; type: functional
Klebsiella pneumoniae = assay: In vitro Minimum inhibitory concentration against Klebsiella pneumoniae 8045; type: functional
Mus musculus [18] = assay: Blood level was evaluated at 2.0 hr when administered at a peroral dose of 25 mg/kg; type: functional; details: route oral
Streptococcus pyogenes = assay: In vitro Minimum inhibitory concentration against Streptococcus pyogenes 930; type: functional
Escherichia coli [19] = assay: In vitro Minimum inhibitory concentration against Escherichia coli Juhl; type: functional
Pseudomonas aeruginosa [20] = assay: In vitro Minimum inhibitory concentration against Pseudomonas aeruginosa 5007; type: functional
Acinetobacter = assay: In vitro Minimum inhibitory concentration against Acinetobacter CMX 669; type: functional; details: Acinetobacter; read-out: MIC
Mus musculus [21] = assay: (§1) Blood level was evaluated by a disk agar diffusion assay at 0.5 hr when administered at a peroral dose of 25 mg/kg; type: functional; details: route oral
Mus musculus [22] = assay: In vivo efficacy against Escherichia coli Juhl, in mouse protection tests when administered perorally (po); type: functional
Mus musculus [23] = assay: (§2) In vivo efficacy against Staphylococcus aureus 10649, in mouse protection tests when administered subcutaneously (sc); type: functional
Mus musculus [24] = assay: (§3) In vivo efficacy against Staphylococcus aureus 10649, in mouse protection tests when administered perorally (po); type: functional
Mus musculus [25] = assay: In vivo efficacy against Escherichia coli Juhl, in mouse protection tests when administered subcutaneously (sc); type: functional
[26] = (§4) Blood level was evaluated by a disk agar diffusion assay at 3.0 hh when administered at a peroral dose of 25 mg/kg; type: ADME, organism-based; design: dose 25 mg/kg, route oral; details: mouse, po, read-out: Blood level
[27] = (§5) Blood level was evaluated by a disk agar diffusion assay at 1.0 hr when administered at a peroral dose of 25 mg/kg; type: ADME, organism-based; design: dose 25 mg/kg, route oral; details: mouse, po, read-out: Blood level
Staphylococcus aureus [28] = assay: as §2; type: functional
[29] = as §1; type: ADME, organism-based; design: dose 25 mg/kg, route oral; details: mouse, po, read-out: Blood level
[30] = (§6) Blood level was evaluated by a disk agar diffusion assay at 2.0 hr when administered at a peroral dose of 25 mg/kg; type: ADME, organism-based; design: dose 25 mg/kg, route oral; details: mouse, po, read-out: Blood level
[31] = (§7) Blood level was evaluated by a disk agar diffusion assay at 24.0 hr when administered at a peroral dose of 25 mg/kg; type: ADME, organism-based; design: dose 25 mg/kg, route oral; details: mouse, po, read-out: Blood level
Staphylococcus aureus [32] = assay: as §3; type: functional
[33] = (§8) Blood level was evaluated by a disk agar diffusion assay at 6.0 hr when administered at a peroral dose of 25 mg/kg; type: ADME, organism-based; design: dose 25 mg/kg, route oral; details: mouse, po, read-out: Blood level
Mus musculus [34] = assay: In vivo efficacy against Escherichia coli Juhl, in mouse protection tests. when administered perorally (po); type: functional
Mus musculus [35] = assay: as §8; type: functional; details: route oral
Mus musculus [36] = assay: as §4; type: functional; details: route oral
Mus musculus [37] = assay: as §5; type: functional; details: route oral
Mus musculus [38] = assay: as §7; type: functional; details: route oral
Mus musculus [39] = assay: as §6; type: functional; details: route oral

| Structure (SMILES) | IC50 (Escherichia coli [1]) [µg/mL] | ED50 (Mus musculus [3]) [mg/kg] | MIC (Pseudomonas aeruginosa [4]) [µg/mL] | ED50 (Mus musculus [5]) [mg/kg] | MIC [6] [µg/mL] | ED50 (Mus musculus [8]) [mg/kg] | MIC (Staphylococcus aureus [10]) [µg/mL] | MIC (Staphylococcus aureus [11]) [µg/mL] | MIC (Staphylococcus aureus [12]) [µg/mL] | MIC (Streptococcus agalactiae) [µg/mL] | MIC (Streptococcus equinus) [µg/mL] | MIC (Staphylococcus aureus [14]) [µg/mL] | MIC (Enterococcus faecium) [µg/mL] | MIC (Klebsiella pneumoniae) [µg/mL] | MIC (Streptococcus pyogenes) [µg/mL] | MIC (Escherichia coli [19]) [µg/mL] | MIC (Pseudomonas aeruginosa [20]) [µg/mL] | MIC (Acinetobacter) [µg/mL] | Blood level (Mus musculus [21]) [µg/mL] | ED50 (Mus musculus [22]) [mg/kg] | also measured |
| --- | --- | --- | --- | --- | --- | --- | --- | --- | --- | --- | --- | --- | --- | --- | --- | --- | --- | --- | --- | --- | --- |
| C[C@H]1C[C@H](N)CN1c1nc2c(cc1F)c(=O)c(C(=O)O)cn2-c1ccc(F)cc1F | 0.6 (≈ 1.43 µM) | 0.6 | 0.78 (≈ 1.86 µM) | 0.9 | 0.05 (≈ 0.12 µM) | > 2.5 | 0.05 (≈ 0.12 µM) | 0.05 (≈ 0.12 µM) | 0.02 (≈ 0.0478 µM) | 0.2 (≈ 0.478 µM) | 0.2 (≈ 0.478 µM) | 0.02 (≈ 0.0478 µM) | 0.1 (≈ 0.239 µM) | 0.02 (≈ 0.0478 µM) | 0.2 (≈ 0.478 µM) | 0.02 (≈ 0.0478 µM) | 0.78 (≈ 1.86 µM) | 0.1 (≈ 0.239 µM) | 5.9 |  | ED50 (Mus musculus [2]): 2.7 mg/kg; Blood level (Mus musculus [7]): 1.3 µg/mL; Blood level (Mus musculus [9]): 2.8 µg/mL; solubility [13]: 150 µg/mL (≈ 359 µM); logP [15]: -0.2; Blood level (Mus musculus [16]): 0.2 µg/mL; Blood level (Mus musculus [17]): 3.2 µg/mL; Blood level (Mus musculus [18]): 3.3 µg/mL |
| NC1CCN(c2cc3c(cc2F)c(=O)c(C(=O)O)cn3-c2ccc(F)cc2)C1 (centres undefined) |  |  |  |  |  |  |  |  |  |  |  |  |  |  |  |  |  |  |  | 5.8 | ED50 (Mus musculus [23]): 0.8 mg/kg; ED50 (Mus musculus [24]): 6.2 mg/kg; ED50 (Mus musculus [25]): 1 mg/kg |
| C[C@H]1C[C@H](N)CN1c1nc2c(cc1F)c(=O)c(C(=O)O)cn2-c1ccc(F)cc1 |  |  | 0.39 (≈ 0.974 µM) |  | 0.1 (≈ 0.25 µM) |  | 0.1 (≈ 0.25 µM) | 0.1 (≈ 0.25 µM) | 0.05 (≈ 0.125 µM) | 0.78 (≈ 1.95 µM) | 0.78 (≈ 1.95 µM) | 0.05 (≈ 0.125 µM) | 0.39 (≈ 0.974 µM) | 0.05 (≈ 0.125 µM) | 0.39 (≈ 0.974 µM) | 0.05 (≈ 0.125 µM) | 0.39 (≈ 0.974 µM) | 0.1 (≈ 0.25 µM) |  |  | concentration at 3 h [26]: 800 ng/mL; concentration at 1 h [27]: 1900 ng/mL; ED50 (Staphylococcus aureus [28]): 2 mg/kg; concentration at 0.5 h [29]: 2400 ng/mL; concentration at 2 h [30]: 1500 ng/mL; concentration at 24 h [31]: 100 ng/mL; ED50 (Staphylococcus aureus [32]): 5.7 mg/kg; concentration at 6 h [33]: 300 ng/mL |
| CCC1C[C@H](N)CN1c1cc2c(cc1F)c(=O)c(C(=O)O)cn2-c1ccc(F)cc1F (some centres undefined) |  | 2.4 | 0.78 (≈ 1.81 µM) | 0.8 | 0.1 (≈ 0.232 µM) | 2.4 | 0.1 (≈ 0.232 µM) | 0.1 (≈ 0.232 µM) | 0.05 (≈ 0.116 µM) | 0.1 (≈ 0.232 µM) | 0.2 (≈ 0.464 µM) | 0.05 (≈ 0.116 µM) | 0.2 (≈ 0.464 µM) | 0.05 (≈ 0.116 µM) | 0.1 (≈ 0.232 µM) | 0.1 (≈ 0.232 µM) | 6.2 (≈ 14.4 µM) | 0.2 (≈ 0.464 µM) |  |  | ED50 (Mus musculus [34]): 9.6 mg/kg |
| O=C(O)c1cn(C2CC2)c2cc(N3CCNCC3)c(F)cc2c1=O [CIPROFLOXACIN] | 0.9 (≈ 2.72 µM) |  | 0.2 (≈ 0.604 µM) |  | 0.78 (≈ 2.35 µM) |  | 0.39 (≈ 1.18 µM) | 0.78 (≈ 2.35 µM) | 0.2 (≈ 0.604 µM) | 0.78 (≈ 2.35 µM) | 1.56 (≈ 4.71 µM) | 0.39 (≈ 1.18 µM) | 0.39 (≈ 1.18 µM) | 0.02 (≈ 0.0604 µM) |  |  | 0.39 (≈ 1.18 µM) | 0.39 (≈ 1.18 µM) | 1.3 | 1.9 | Blood level (Mus musculus [35]): 0 µg/mL; Blood level (Mus musculus [36]): 0.1 µg/mL; ED50 (Staphylococcus aureus [28]): 1.6 mg/kg; Blood level (Mus musculus [37]): 0.8 µg/mL; Blood level (Mus musculus [38]): 0 µg/mL; ED50 (Staphylococcus aureus [32]): 15.5 mg/kg; ED50 (Mus musculus [25]): 0.2 mg/kg; Blood level (Mus musculus [39]): 0.3 µg/mL |

— ChEMBL document CHEMBL1124182, “Design, synthesis, and properties of (4S)-7-(4-amino-2-substituted-pyrrolidin-1-yl)quinolone-3-carboxylic acids” (J Med Chem, 1988)
